Source: paper PMC9867442, “Indole Derivatives Bearing Imidazole, Benzothiazole-2-Thione or Benzoxazole-2-Thione Moieties—Synthesis, Structure and Evaluation of Their Cytoprotective, Antioxidant, Antibacterial and Fungicidal Activities” (Molecules, 2023)

Test system: Coniophora puteana (Cp)
Test: Antifungal agar-plate method
Type: cell-based
Conditions: Coniophora puteana, concentration 0.0001%, read-out: Antifungal activity (inhibition of mycelial growth)
Experimental: (§1) Fungal strains: Coriolus versicolor (Cv), Poria placenta (Pp), Coniophora puteana (Cp) and Gloeophyllum trabeum (Gt) were used as a test organism for the experimental determination of the antifungal activity of 1–11. The fungus were obtained from the collection of the Department of Wood Chemical Technology, Faculty of Forestry and Wood Technology, Poznań, University of Life Sciences, Poland. The fungal growth rates were measured in 90 mm-diameter plastic dishes using the agar-plate method, described by Ważny and Thorton. Five concentrations of gramine and its derivatives in the range of 0.1% to 0.00001% were studied. The compound was applied on the agar (2% agar and 5% malt-extract) prepared on the Petri dish and previously autoclaved. The combination of the compound and fungus was repeated three times. Given sample was centrally inoculated with a 5 mm diameter disc taken from the submargin of 5-day-old malt agar plates. The plates were incubated in darkness at 21 ± 2 °C and 70 ± 5% relative air humidity. The growth duration was determined by the total coverage of the reference plate. The radius of the area covered by the fungus compared with the reference agar plate was employed to calculate the effective doses, ED50, of preservative concentrations retarding the fungal growth rate by 50%.

Structure (SMILES)	inhibition of growth at 0.0001 % [%]
Cc1nccn1Cc1c[nH]c2ccccc12 [Compound 3, 3-((2-methyl-1H-imidazol-1-yl)methyl)-1H-indole]	0

Same assay, conditions: Coniophora puteana, concentration 0.001%, read-out: Antifungal activity (inhibition of mycelial growth)

Structure (SMILES)	inhibition of growth at 0.001 % [%]
Cc1nccn1Cc1c[nH]c2ccccc12 [Compound 3, 3-((2-methyl-1H-imidazol-1-yl)methyl)-1H-indole]	0

Same assay, conditions: Coniophora puteana, concentration 0.01%, read-out: Antifungal activity (inhibition of mycelial growth)

Structure (SMILES)	inhibition of growth at 0.01 % [%]
Cc1nccn1Cc1c[nH]c2ccccc12 [Compound 3, 3-((2-methyl-1H-imidazol-1-yl)methyl)-1H-indole]	48

Same assay, conditions: Coniophora puteana, concentration 0.1%, read-out: Antifungal activity (inhibition of mycelial growth)

Structure (SMILES)	inhibition of growth at 0.1 % [%]
Cc1nccn1Cc1c[nH]c2ccccc12 [Compound 3, 3-((2-methyl-1H-imidazol-1-yl)methyl)-1H-indole]	100

Test system: Gloeophyllum trabeum (Gt)
Test: Antifungal agar-plate method
Type: cell-based
Conditions: Gloeophyllum trabeum, concentration 0.0001%, read-out: Antifungal activity (inhibition of mycelial growth)
Experimental: as §1

Structure (SMILES)	inhibition of growth at 0.0001 % [%]
Cc1nccn1Cc1c[nH]c2ccccc12 [Compound 3, 3-((2-methyl-1H-imidazol-1-yl)methyl)-1H-indole]	15

Same assay, conditions: Gloeophyllum trabeum, concentration 0.001%, read-out: Antifungal activity (inhibition of mycelial growth)

Structure (SMILES)	inhibition of growth at 0.001 % [%]
Cc1nccn1Cc1c[nH]c2ccccc12 [Compound 3, 3-((2-methyl-1H-imidazol-1-yl)methyl)-1H-indole]	19

Same assay, conditions: Gloeophyllum trabeum, concentration 0.01%, read-out: Antifungal activity (inhibition of mycelial growth)

Structure (SMILES)	inhibition of growth at 0.01 % [%]
Cc1nccn1Cc1c[nH]c2ccccc12 [Compound 3, 3-((2-methyl-1H-imidazol-1-yl)methyl)-1H-indole]	44

Same assay, conditions: Gloeophyllum trabeum, concentration 0.1%, read-out: Antifungal activity (inhibition of mycelial growth)

Structure (SMILES)	inhibition of growth at 0.1 % [%]
Cc1nccn1Cc1c[nH]c2ccccc12 [Compound 3, 3-((2-methyl-1H-imidazol-1-yl)methyl)-1H-indole]	100

Test system: Poria placenta (Pp)
Test: Antifungal agar-plate method
Type: cell-based
Conditions: concentration 0.0001%, read-out: Antifungal activity (inhibition of mycelial growth)
Experimental: as §1

Structure (SMILES)	inhibition of growth at 0.0001 % [%]
Cc1nccn1Cc1c[nH]c2ccccc12 [Compound 3, 3-((2-methyl-1H-imidazol-1-yl)methyl)-1H-indole]	0

Same assay, conditions: concentration 0.001%, read-out: Antifungal activity (inhibition of mycelial growth)

Structure (SMILES)	inhibition of growth at 0.001 % [%]
Cc1nccn1Cc1c[nH]c2ccccc12 [Compound 3, 3-((2-methyl-1H-imidazol-1-yl)methyl)-1H-indole]	0

Same assay, conditions: concentration 0.01%, read-out: Antifungal activity (inhibition of mycelial growth)

Structure (SMILES)	inhibition of growth at 0.01 % [%]
Cc1nccn1Cc1c[nH]c2ccccc12 [Compound 3, 3-((2-methyl-1H-imidazol-1-yl)methyl)-1H-indole]	48

Same assay, conditions: concentration 0.1%, read-out: Antifungal activity (inhibition of mycelial growth)

Structure (SMILES)	inhibition of growth at 0.1 % [%]
Cc1nccn1Cc1c[nH]c2ccccc12 [Compound 3, 3-((2-methyl-1H-imidazol-1-yl)methyl)-1H-indole]	100

Test system: Coriolus versicolor (Cv)
Test: Antifungal agar-plate method
Type: cell-based
Conditions: Trametes versicolor, concentration 0.0001%, read-out: Antifungal activity (inhibition of mycelial growth)
Experimental: as §1

Structure (SMILES)	inhibition of growth at 0.0001 % [%]
Cc1nccn1Cc1c[nH]c2ccccc12 [Compound 3, 3-((2-methyl-1H-imidazol-1-yl)methyl)-1H-indole]	0

Same assay, conditions: Trametes versicolor, concentration 0.001%, read-out: Antifungal activity (inhibition of mycelial growth)

Structure (SMILES)	inhibition of growth at 0.001 % [%]
Cc1nccn1Cc1c[nH]c2ccccc12 [Compound 3, 3-((2-methyl-1H-imidazol-1-yl)methyl)-1H-indole]	1

Same assay, conditions: Trametes versicolor, concentration 0.01%, read-out: Antifungal activity (inhibition of mycelial growth)

Structure (SMILES)	inhibition of growth at 0.01 % [%]
Cc1nccn1Cc1c[nH]c2ccccc12 [Compound 3, 3-((2-methyl-1H-imidazol-1-yl)methyl)-1H-indole]	35

Same assay, conditions: Trametes versicolor, concentration 0.1%, read-out: Antifungal activity (inhibition of mycelial growth)

Structure (SMILES)	inhibition of growth at 0.1 % [%]
Cc1nccn1Cc1c[nH]c2ccccc12 [Compound 3, 3-((2-methyl-1H-imidazol-1-yl)methyl)-1H-indole]	100

Test system: Escherichia coli
Test: Antibacterial well-diffusion method
Type: cell-based
Conditions: 0.1 mL of compound in DMSO, 48 h, 37 °C
Experimental: (§2) The antimicrobial properties of compounds were determined against selected bacteria: Micrococcus luteus, Bacillus subtilis, Escherichia coli and Pseudomonas fluorescens which came from the collection of Pure Cultures of the Facility of Microbiology of the Department of Soil Science and Microbiology of the Poznan University of Life Sciences. The well-diffusion method was used to evaluate the antimicrobial properties of compounds. 6 mL each of liquidized broth medium was poured into sterile Petri dishes and allowed to solidify. After which, two sterile glass rings with a diameter of 0.5 cm were placed on the surface of each plate. Then 20 mL each of liquid broth medium containing suspensions of the tested bacterial strains at a density of 10^7 cells/cm3, obtained from 48-h cultures on broth […], was introduced. After the medium solidified, the glass rings were removed with a pencil, obtaining two wells on each plate. 0.1 mL of compound dissolved in pure dimethyl sulphoxide was introduced into one well, and 0.1 mL of pure dimethyl sulphoxide was introduced into the other well, which was as a control. Each compound was tested in four replicates. The plates were incubated for 48 h in a thermostat at 27 °C for M. luteus, B. subtilis and P. fluorescens cultures, and the E. coli culture at 37 °C. At the end of the incubation, the diameters of growth inhibition of the tested strains were measured using calipers.

Structure (SMILES)	Zone of Growth Inhibition [mm]
Cc1nccn1Cc1c[nH]c2ccccc12 [Compound 3, 3-((2-methyl-1H-imidazol-1-yl)methyl)-1H-indole]	1

Test system: Micrococcus luteus
Test: Antibacterial well-diffusion method
Type: cell-based
Conditions: Micrococus luteus, 0.1 mL of compound in DMSO, 48 h, 27 °C
Experimental: as §2

Structure (SMILES)	Zone of Growth Inhibition [mm]
Cc1nccn1Cc1c[nH]c2ccccc12 [Compound 3, 3-((2-methyl-1H-imidazol-1-yl)methyl)-1H-indole]	3

Test system: Bacillus subtilis
Test: Antibacterial well-diffusion method
Type: cell-based
Conditions: 0.1 mL of compound in DMSO, 48 h, 27 °C
Experimental: as §2

Structure (SMILES)	Zone of Growth Inhibition [mm]
Cc1nccn1Cc1c[nH]c2ccccc12 [Compound 3, 3-((2-methyl-1H-imidazol-1-yl)methyl)-1H-indole]	1

Test system: Pseudomonas fluorescens
Test: Antibacterial well-diffusion method
Type: cell-based
Conditions: 0.1 mL of compound in DMSO, 48 h, 27 °C
Experimental: as §2

Structure (SMILES)	Zone of Growth Inhibition [mm]
Cc1nccn1Cc1c[nH]c2ccccc12 [Compound 3, 3-((2-methyl-1H-imidazol-1-yl)methyl)-1H-indole]	16

Test system: not given
Test: not given
Conditions: not given

melting point [°C]	Structure (SMILES)
173 to 174	Cc1nccn1Cc1c[nH]c2ccccc12 [Compound 3, 3-((2-methyl-1H-imidazol-1-yl)methyl)-1H-indole]

Test system: human red blood cells (RBC)
Test: Hemolysis assay under the compounds tested
Type: cell-based
Conditions: 0.1 mg/mL, 60 min, 37 °C, PBS pH 7.4
Experimental: The erythrocytes were washed three times (3000 rpm, 10 min, +4 °C) in 7.4 pH phosphate buffered saline (PBS: 137 mM NaCl, 2.7 mM KCl, 10 mM Na2HPO4, 1.76 mM KH2PO4) supplemented with 10 mM glucose. After washing, RBC were suspended in the PBS buffer at 1.65 × 10^9 cells/mL, stored at +4 °C, and used within 5 h.
The cytotoxic activity of the compounds tested was determined by a standard hemolytic assay according to Mrówczyńska and Hägerstrand [57]. Briefly, RBC (1.65 × 10^8 cells/mL, ~1.5% hematocrit) were incubated in PBS buffer (7.4 pH) supplemented with 10 mM glucose and containing compounds tested (0.1 mg/mL) for 60 min at 37 °C in a shaking water bath. Samples with RBC incubated in PBS without compounds tested were taken as the control. Each sample was repeated three times, and the experiments were repeated 3 times with RBC from different donors. After incubation, the RBC suspensions were centrifuged (3000 rpm, 10 min), and the degree of hemolysis was estimated by measuring the absorbance (Ab) of the supernatant at 540 nm. The results were expressed as a percentage (%) of hemolysis which was determined using the following equation:Hemolysis (%) = (sample Ab/positive control Ab) × 100% were positive control is Ab of supernatant of RBC in ice-cold H2O.

Structure (SMILES)	Hemolytic activity [%]
Cc1nccn1Cc1c[nH]c2ccccc12 [Compound 3, 3-((2-methyl-1H-imidazol-1-yl)methyl)-1H-indole]	3.6
